Among the data in ChEMBL document CHEMBL1201862, “PubChem BioAssay data set” (2004) are IC50, AC50 and EC50 values, retold here.

By IC50 is commonly meant the concentration needed to halve the response being measured. By AC50 is commonly meant the concentration giving half of the maximal activity seen. The term EC50 denotes the concentration that produces a half-maximal response.

Active and inactive are the calls of the source.

One experiment addresses T1, Hexokinase HKDC1 (Homo sapiens, UniProt Q2TB90).
T1 sequence (Q2TB90 whole entry): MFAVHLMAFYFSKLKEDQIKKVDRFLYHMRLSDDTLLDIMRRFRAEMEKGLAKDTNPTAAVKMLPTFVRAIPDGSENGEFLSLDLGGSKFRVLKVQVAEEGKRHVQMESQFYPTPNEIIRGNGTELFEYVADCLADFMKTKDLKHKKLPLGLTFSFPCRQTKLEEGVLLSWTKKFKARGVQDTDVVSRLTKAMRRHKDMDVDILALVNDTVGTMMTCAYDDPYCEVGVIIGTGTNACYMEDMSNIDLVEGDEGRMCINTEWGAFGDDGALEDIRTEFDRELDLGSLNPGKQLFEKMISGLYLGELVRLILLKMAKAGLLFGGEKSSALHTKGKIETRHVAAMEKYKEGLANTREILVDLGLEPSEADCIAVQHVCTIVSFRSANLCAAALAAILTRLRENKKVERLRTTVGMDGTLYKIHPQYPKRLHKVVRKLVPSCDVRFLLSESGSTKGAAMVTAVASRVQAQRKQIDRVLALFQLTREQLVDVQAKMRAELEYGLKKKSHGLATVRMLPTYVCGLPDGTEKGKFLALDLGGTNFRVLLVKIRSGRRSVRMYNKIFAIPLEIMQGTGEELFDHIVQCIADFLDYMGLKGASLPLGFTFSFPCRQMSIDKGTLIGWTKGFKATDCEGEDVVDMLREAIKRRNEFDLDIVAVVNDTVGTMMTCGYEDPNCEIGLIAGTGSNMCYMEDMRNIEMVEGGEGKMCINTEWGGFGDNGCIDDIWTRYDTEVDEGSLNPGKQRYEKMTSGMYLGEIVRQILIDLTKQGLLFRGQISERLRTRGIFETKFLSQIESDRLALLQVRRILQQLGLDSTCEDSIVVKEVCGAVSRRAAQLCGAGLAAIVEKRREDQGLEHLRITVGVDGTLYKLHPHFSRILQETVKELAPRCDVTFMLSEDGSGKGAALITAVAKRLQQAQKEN
Kind of experiment: inhibition of HKDC1 glucose phosphorylation – biochemical, W721R variant, dose response (AID 504729). The experiment is classed as functional.

The target in experiment [1] is Heat shock protein HSP 90-alpha (Homo sapiens, UniProt P07900). In words: Luminescence-based dose response biochemical high throughput screening assay for inhibitors of the Heat Shock Protein 90 (HSP90). [Related pubchem assays: 1831 (Summary AID.), 1846 (Confirmation screen.), 1789 (Primary screen.)].
The target in experiment [2] is T2, Sentrin-specific protease 8 (Homo sapiens, UniProt Q96LD8).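 Further: luminescence read-out of SENP8 inhibition, dose-response confirmation following an ultra-high-throughput screen.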
T2 sequence (Q96LD8 whole entry): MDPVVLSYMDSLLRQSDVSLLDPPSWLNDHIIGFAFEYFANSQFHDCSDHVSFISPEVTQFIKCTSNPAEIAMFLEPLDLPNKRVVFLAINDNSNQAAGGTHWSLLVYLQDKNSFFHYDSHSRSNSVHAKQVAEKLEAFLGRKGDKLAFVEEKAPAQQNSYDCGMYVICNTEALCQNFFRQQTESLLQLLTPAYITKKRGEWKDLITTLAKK
The experiment is classed as functional.

Experiment [3] addresses T3, Histone-lysine N-methyltransferase NSD2 (Homo sapiens, UniProt O96028).
T3 sequence (O96028 whole entry): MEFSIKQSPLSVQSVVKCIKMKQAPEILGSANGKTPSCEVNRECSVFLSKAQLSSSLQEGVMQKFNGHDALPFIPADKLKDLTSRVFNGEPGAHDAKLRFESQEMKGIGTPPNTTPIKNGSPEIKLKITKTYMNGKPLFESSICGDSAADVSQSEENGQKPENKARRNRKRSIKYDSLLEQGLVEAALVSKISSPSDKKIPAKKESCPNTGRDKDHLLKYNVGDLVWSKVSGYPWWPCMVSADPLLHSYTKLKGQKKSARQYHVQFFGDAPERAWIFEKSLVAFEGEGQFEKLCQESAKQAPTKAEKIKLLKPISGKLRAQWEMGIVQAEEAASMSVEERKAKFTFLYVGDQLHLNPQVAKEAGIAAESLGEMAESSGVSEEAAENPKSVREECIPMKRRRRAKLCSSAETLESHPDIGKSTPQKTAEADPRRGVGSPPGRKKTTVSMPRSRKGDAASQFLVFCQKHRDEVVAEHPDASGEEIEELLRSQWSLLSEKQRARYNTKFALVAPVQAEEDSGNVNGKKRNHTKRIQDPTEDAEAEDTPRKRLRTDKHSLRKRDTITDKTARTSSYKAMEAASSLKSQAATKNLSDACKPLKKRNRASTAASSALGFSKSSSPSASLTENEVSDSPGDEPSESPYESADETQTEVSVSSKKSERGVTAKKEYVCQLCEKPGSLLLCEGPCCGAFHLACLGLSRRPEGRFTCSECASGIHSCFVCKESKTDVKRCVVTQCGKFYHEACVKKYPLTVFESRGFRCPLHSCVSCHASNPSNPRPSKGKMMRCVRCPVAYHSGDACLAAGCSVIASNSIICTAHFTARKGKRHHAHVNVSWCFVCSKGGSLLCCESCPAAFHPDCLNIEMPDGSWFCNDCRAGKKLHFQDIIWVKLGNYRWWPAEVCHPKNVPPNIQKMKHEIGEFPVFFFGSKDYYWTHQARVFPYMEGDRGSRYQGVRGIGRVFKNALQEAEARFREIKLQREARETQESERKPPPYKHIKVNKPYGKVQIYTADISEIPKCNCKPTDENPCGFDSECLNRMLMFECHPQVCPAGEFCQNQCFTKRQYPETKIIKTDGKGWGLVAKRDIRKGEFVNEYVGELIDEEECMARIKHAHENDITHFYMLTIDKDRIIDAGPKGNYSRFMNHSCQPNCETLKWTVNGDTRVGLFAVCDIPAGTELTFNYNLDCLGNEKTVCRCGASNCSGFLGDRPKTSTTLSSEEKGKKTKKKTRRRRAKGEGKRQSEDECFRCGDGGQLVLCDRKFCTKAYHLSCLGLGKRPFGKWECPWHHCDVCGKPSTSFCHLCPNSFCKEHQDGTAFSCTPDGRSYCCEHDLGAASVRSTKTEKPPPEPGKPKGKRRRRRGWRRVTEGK
The experiment is classed as biochemical.

Experiment [4] deals with Streptococcus sp. 'group A'. In words: Streptococcus pyogenes SK(-)GAS viability under kanamycin – luminescence, BacTiterGlo, confirmation, counter-screen for streptokinase expression inhibitor project, dose response (AID 1900). The experiment is classed as functional, organism-based. Background: A counterscreen serves to expose hits that act by an unwanted route or on another target.

Experiment [5] has as its target Mitochondrial peptide methionine sulfoxide reductase (Bos taurus, UniProt P54149). The experiment is classed as functional.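 Further: absorbance read-out, biochemical high-throughput dose-response screen for MsrA inhibitors, confirmatory; recombinant bovine MsrA coupled to E. coli TrxB with NADPH and selenocystamine; potency is for inhibitors of MsrA activity on DMSO substrate.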
A further experiment deals with Streptococcus. In words: GAS UMAA2166 growth inhibition – luminescence, BacTiterGlo, counter-screen for streptokinase expression inhibitor project, dose response (AID 1915).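 Further: potency for reduction of bacterial viability or growth.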 The experiment is classed as functional, organism-based.

Sequence of Mitochondrial peptide methionine sulfoxide reductase (P54149 whole entry): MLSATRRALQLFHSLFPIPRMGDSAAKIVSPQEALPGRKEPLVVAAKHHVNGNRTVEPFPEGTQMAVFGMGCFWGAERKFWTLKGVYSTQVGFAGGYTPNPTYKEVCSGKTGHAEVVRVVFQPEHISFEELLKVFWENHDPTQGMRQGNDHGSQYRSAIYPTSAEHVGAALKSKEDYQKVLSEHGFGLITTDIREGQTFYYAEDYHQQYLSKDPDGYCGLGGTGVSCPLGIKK

On to `COC(=O)C[C@]1(C(=O)OC)CN(C#N)N(c2ccc(Cl)cc2)C12c1ccccc1-c1ccccc12`, for which the IC50 on Hexokinase HKDC1 is 3.35 µM (active); in experiment [1], 3.75 µM (active).
For `O=C(Nc1ccc(C#Cc2ccccc2)cc1)C1CC1`, the IC50 in experiment [2] is > 100 µM (inactive).
Take `CCCCn1c(NC(=O)c2ccco2)c(C(=O)OCC)c2nc3ccccc3nc21`: the half-maximal activity concentration (AC50) in experiment [3] was 2.94 µM (active). For the same compound, the 50% inhibitory concentration (IC50) in experiment [2] is 4.36 µM (active).
Take `Cc1ccccc1NC1=C/C(=N\S(=O)(=O)c2ccc(C(=O)O)cc2)c2ccccc2C1=O`: the EC50 is 1.67 µM (active) in experiment [4] and 5.01 µM (active) in the experiment with Streptococcus. Further, the results for the IC50 (in experiment [5]; at Hexokinase HKDC1; in experiment [1]) were 62.4 µM (inactive), 2.53 µM (active) and 0.522 µM (active), respectively. Moreover, the AC50 in experiment [3] was 0.117 µM (active).
For the compound `Cc1ccc(NC2=C/C(=N/S(=O)(=O)c3cccs3)c3ccccc3C2=O)cc1`, the values for the IC50 in experiment [5] and in experiment [2] were 425 µM (inactive) and 0.244 µM (active), respectively.
For `COc1ccc(-c2cc(-c3ccc(C)cc3)[nH]n2)c(O)c1`, the results for the 50% effective concentration (EC50) (in experiment [4]; in the experiment with Streptococcus) were 11 µM (active) and 15.8 µM (active), respectively. In experiment [2], the IC50 is 34.6 µM (active).
